Measurements as given in ChEMBL document CHEMBL1155368, “Derivatives of aryl amines containing the cytotoxic 1,4-dioxo-2-butenyl pharmacophore” (Bioorg Med Chem Lett, 2010).
pIC50: −log10 of the molar value.

Legend:
[1] = Cytotoxicity against human Molt4/C8 cells; format: functional, cell-based; details: MOLT-4
CCRF-CEM = assay: Cytotoxicity against human CEM cells; format: functional, cell-based
L1210 = assay: Cytotoxicity against mouse L1210 cells; format: functional, cell-based
Mus musculus [2] = assay: Toxicity in mouse assessed as mortality at 300 mg/kg, ip after 4 hrs; format: organism-based; parameters: dose 300 mg/kg, route intraperitoneal; details: in vivo
Mus musculus [3] = assay: Toxicity in mouse assessed as mortality at 100 mg/kg, ip after 4 hrs; format: organism-based; parameters: dose 100 mg/kg, route intraperitoneal; details: in vivo
Mus musculus [4] = assay: Toxicity in mouse assessed as mortality at 30 to 300 mg/kg, ip after 0.5 to 4 hrs; format: organism-based; parameters: dose 30-300 mg/kg, route intraperitoneal; details: in vivo
[5] = biological target: T1, Glycylpeptide N-tetradecanoyltransferase 1 (Homo sapiens, UniProt P30419); assay: Inhibition of human NMT expressed in Escherichia coli DH5alpha cells
T1 sequence (P30419 whole entry): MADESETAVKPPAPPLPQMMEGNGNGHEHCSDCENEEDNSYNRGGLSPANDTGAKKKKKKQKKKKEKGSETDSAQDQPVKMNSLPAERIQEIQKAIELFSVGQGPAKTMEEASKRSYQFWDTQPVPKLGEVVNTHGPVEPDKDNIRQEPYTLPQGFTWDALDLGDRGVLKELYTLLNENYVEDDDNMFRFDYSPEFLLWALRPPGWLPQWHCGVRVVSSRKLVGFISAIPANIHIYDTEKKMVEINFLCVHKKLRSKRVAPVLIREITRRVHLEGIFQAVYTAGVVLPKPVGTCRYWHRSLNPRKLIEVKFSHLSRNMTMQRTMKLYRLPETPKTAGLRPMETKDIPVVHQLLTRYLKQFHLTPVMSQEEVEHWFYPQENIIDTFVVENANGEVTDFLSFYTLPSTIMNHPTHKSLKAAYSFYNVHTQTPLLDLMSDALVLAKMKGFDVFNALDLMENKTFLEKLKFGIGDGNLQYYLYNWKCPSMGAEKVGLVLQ

Mus musculus [6] = assay: Toxicity in mouse assessed as mortality at 30 mg/kg, ip after 4 hrs; format: organism-based; parameters: dose 30 mg/kg, route intraperitoneal; details: in vivo

## COC(=O)CCC(=O)Nc1ccccc1
[1]
  pIC50: < 3.30
CCRF-CEM
  pIC50: < 3.30
L1210
  pIC50: < 3.30

## O=C1CCC(=O)N1c1ccc(Cl)cc1
[1]
  pIC50: 3.66
CCRF-CEM
  pIC50: 3.64
Mus musculus [2]
  Activity: Toxic
Mus musculus [3]
  Activity: Toxic
L1210
  pIC50: 3.71

## CC(=O)c1ccc(/N=C2\C=CC(=O)O2)cc1
[1]
  pIC50: 3.67
CCRF-CEM
  pIC50: 3.69
L1210
  pIC50: 3.66

## COc1ccc(NC(=O)/C=C/C(=O)O)cc1
[1]
  pIC50: < 3.30
CCRF-CEM
  pIC50: < 3.30
Mus musculus [4]
  Activity: Non-toxic
L1210
  pIC50: < 3.30

## COC(=O)/C=C/C(=O)Nc1ccccc1
[1]
  pIC50: 4.38
CCRF-CEM
  pIC50: 4.40
Mus musculus [4]
  Activity: Non-toxic
L1210
  pIC50: 4.40

## O=C(O)/C=C/C(=O)Nc1ccc(Cl)cc1
[1]
  pIC50: < 3.30
CCRF-CEM
  pIC50: < 3.30
Mus musculus [4]
  Activity: Non-toxic
L1210
  pIC50: < 3.30

## Cc1ccc(/N=C2\C=CC(=O)O2)cc1C
[1]
  pIC50: 3.79
CCRF-CEM
  pIC50: 3.71
L1210
  pIC50: 4.16

## COC(=O)/C=C/C(=O)Nc1ccc(Cl)c(Cl)c1
[1]
  pIC50: 5.62
CCRF-CEM
  pIC50: 5.32
Mus musculus [4]
  Activity: Non-toxic
L1210
  pIC50: 6.43

## COC(=O)/C=C\C(=O)Nc1ccc(C)cc1
[1]
  pIC50: 4.43
CCRF-CEM
  pIC50: 4.44
L1210
  pIC50: 4.33
[5]
  pIC50: < 2.00

## O=C1CCC(=O)N1c1ccc([N+](=O)[O-])cc1
[1]
  pIC50: 3.68
CCRF-CEM
  pIC50: 3.69
Mus musculus [2]
  Activity: Toxic
Mus musculus [3]
  Activity: Toxic
L1210
  pIC50: 4.39

## COC(=O)/C=C/C(=O)Nc1ccc(C)cc1
[1]
  pIC50: 4.68
CCRF-CEM
  pIC50: 4.82
Mus musculus [3]
  Activity: Toxic
L1210
  pIC50: 5.03

## O=C1C=C/C(=N\c2ccc(Cl)c(Cl)c2)O1
[1]
  pIC50: 4.24
CCRF-CEM
  pIC50: 4.27
Mus musculus [2]
  Activity: Toxic
L1210
  pIC50: 4.33

## O=C1C=C/C(=N\c2ccc(Cl)cc2)O1
[1]
  pIC50: 4.52
CCRF-CEM
  pIC50: 3.74
L1210
  pIC50: 4.23

## Cc1ccc(NC(=O)/C=C/C(=O)O)cc1
[1]
  pIC50: < 3.30
CCRF-CEM
  pIC50: < 3.30
Mus musculus [4]
  Activity: Non-toxic
L1210
  pIC50: < 3.30

## COc1ccc(N2C(=O)CCC2=O)cc1
[1]
  pIC50: 3.55
CCRF-CEM
  pIC50: 3.53
Mus musculus [2]
  Activity: Toxic
Mus musculus [3]
  Activity: Toxic
L1210
  pIC50: 3.65

## O=C(O)/C=C/C(=O)Nc1ccc(Cl)c(Cl)c1
[1]
  pIC50: 3.67
CCRF-CEM
  pIC50: 3.68
Mus musculus [4]
  Activity: Non-toxic
L1210
  pIC50: 3.50

## O=C1C=CC(=O)N1c1ccccc1
[1]
  pIC50: 3.68
Mus musculus [6]
  Activity: Toxic
CCRF-CEM
  pIC50: 3.66
Mus musculus [2]
  Activity: Toxic
Mus musculus [3]
  Activity: Toxic
L1210
  pIC50: 3.79

## Cc1ccc(/N=C2\C=CC(=O)O2)cc1
[1]
  pIC50: 3.52
CCRF-CEM
  pIC50: 3.45
L1210
  pIC50: 3.57

## COC(=O)/C=C\C(=O)Nc1ccc([N+](=O)[O-])cc1
[1]
  pIC50: 3.68
CCRF-CEM
  pIC50: 3.72
Mus musculus [2]
  Activity: Toxic
L1210
  pIC50: 3.68

## Cc1cccc(C)c1NC(=O)/C=C/C(=O)O
[1]
  pIC50: < 3.30
CCRF-CEM
  pIC50: < 3.30
Mus musculus [4]
  Activity: Non-toxic
L1210
  pIC50: < 3.30

## COC(=O)/C=C/C(=O)Nc1ccc(C(C)=O)cc1
[1]
  pIC50: 4.46
CCRF-CEM
  pIC50: 4.49
L1210
  pIC50: 4.77

## O=C1C=C/C(=N\c2ccccc2)O1
[1]
  pIC50: < 3.30
CCRF-CEM
  pIC50: < 3.30
L1210
  pIC50: < 3.30

## COC(=O)/C=C/C(=O)Nc1ccc(Cl)cc1
[1]
  pIC50: 5.09
CCRF-CEM
  pIC50: 5.02
Mus musculus [4]
  Activity: Non-toxic
L1210
  pIC50: 5.12

## CC(=O)c1ccc(N2C(=O)CCC2=O)cc1
[1]
  pIC50: 4.03
CCRF-CEM
  pIC50: 3.67
Mus musculus [2]
  Activity: Toxic
Mus musculus [3]
  Activity: Toxic
L1210
  pIC50: 4.51

## COc1ccc(/N=C2\C=CC(=O)O2)cc1
[1]
  pIC50: < 3.30
CCRF-CEM
  pIC50: < 3.30
L1210
  pIC50: < 3.30

## COC(=O)/C=C\C(=O)Nc1ccc(C)c(C)c1
[1]
  pIC50: 3.73
CCRF-CEM
  pIC50: 3.64
L1210
  pIC50: 3.69

## COC(=O)/C=C/C(=O)Nc1ccc(C)c(C)c1
[1]
  pIC50: 5.34
CCRF-CEM
  pIC50: 5.12
Mus musculus [4]
  Activity: Non-toxic
L1210
  pIC50: 5.66
[5]
  pIC50: 2.63

## N[C@@H](Cc1ccc(N(CCCl)CCCl)cc1)C(=O)O [MELPHALAN]
[1]
  pIC50: 5.49
CCRF-CEM
  pIC50: 5.60
L1210
  pIC50: 5.68

## O=C(O)CCC(=O)Nc1ccccc1
[1]
  pIC50: < 3.30
CCRF-CEM
  pIC50: < 3.30
L1210
  pIC50: < 3.30

## O=C1C=C/C(=N\c2ccc([N+](=O)[O-])cc2)O1
[1]
  pIC50: 4.22
CCRF-CEM
  pIC50: 3.79
Mus musculus [2]
  Activity: Toxic
L1210
  pIC50: 4.16

## Cc1ccc(NC(=O)/C=C/C(=O)O)cc1C
[1]
  pIC50: < 3.30
CCRF-CEM
  pIC50: < 3.30
Mus musculus [4]
  Activity: Non-toxic
L1210
  pIC50: 3.33

## O=C(O)/C=C/C(=O)Nc1ccccc1
[1]
  pIC50: < 3.30
CCRF-CEM
  pIC50: < 3.30
Mus musculus [4]
  Activity: Non-toxic
L1210
  pIC50: < 3.30

## COC(=O)/C=C\C(=O)Nc1ccc(Cl)c(Cl)c1
[1]
  pIC50: 4.39
CCRF-CEM
  pIC50: 4.26
Mus musculus [2]
  Activity: Toxic
L1210
  pIC50: 4.41

## COC(=O)/C=C\C(=O)Nc1ccc(Cl)cc1
[1]
  pIC50: 4.39
CCRF-CEM
  pIC50: 4.02
Mus musculus [4]
  Activity: Non-toxic
L1210
  pIC50: 4.11

## COC(=O)/C=C/C(=O)Nc1c(C)cccc1C
[1]
  pIC50: 4.59
CCRF-CEM
  pIC50: 4.51
Mus musculus [4]
  Activity: Non-toxic
L1210
  pIC50: 4.47

## O=C(O)/C=C/C(=O)Nc1ccc([N+](=O)[O-])cc1
[1]
  pIC50: 3.63
CCRF-CEM
  pIC50: < 3.30
Mus musculus [4]
  Activity: Non-toxic
L1210
  pIC50: < 3.30

## COC(=O)/C=C\C(=O)Nc1ccccc1
[1]
  pIC50: < 3.30
CCRF-CEM
  pIC50: < 3.30
L1210
  pIC50: < 3.30

## COC(=O)/C=C\C(=O)Nc1c(C)cccc1C
[1]
  pIC50: 3.72
CCRF-CEM
  pIC50: 3.74
L1210
  pIC50: 3.74

## COC(=O)/C=C/C(=O)Nc1ccc(OC)cc1
[1]
  pIC50: 5.00
CCRF-CEM
  pIC50: 4.43
Mus musculus [4]
  Activity: Non-toxic
L1210
  pIC50: 4.74

## COC(=O)/C=C\C(=O)Nc1ccc(C(C)=O)cc1
[1]
  pIC50: 4.30
CCRF-CEM
  pIC50: 4.36
Mus musculus [2]
  Activity: Toxic
L1210
  pIC50: 3.74

## CC(=O)c1ccc(NC(=O)/C=C/C(=O)O)cc1
[1]
  pIC50: < 3.30
CCRF-CEM
  pIC50: < 3.30
Mus musculus [4]
  Activity: Non-toxic
L1210
  pIC50: < 3.30

## COC(=O)/C=C/C(=O)Nc1ccc([N+](=O)[O-])cc1
[1]
  pIC50: 5.14
CCRF-CEM
  pIC50: 4.96
Mus musculus [4]
  Activity: Non-toxic
L1210
  pIC50: 5.21

## O=C1CCC(=O)N1c1ccccc1
[1]
  pIC50: < 3.30
CCRF-CEM
  pIC50: < 3.30
Mus musculus [4]
  Activity: Non-toxic
L1210
  pIC50: < 3.30

## Cc1ccc(N2C(=O)CCC2=O)cc1
[1]
  pIC50: 4.37
CCRF-CEM
  pIC50: 4.38
Mus musculus [2]
  Activity: Toxic
Mus musculus [3]
  Activity: Toxic
L1210
  pIC50: 5.11
